Results as given in US20080213396A1, “Copper Lowering Treatment Of Cardiac Disease” (The Regents of the University of Michigan, priority 2007, published 2008).

Columns and labels:
[1] = tested on: DXR induced cardiotoxicity and myocardial fibrosis; assay: Trientine mouse doxorubicin study; type: in vivo, mice
Description: Mice and mouse food. All mice were 7-8 weeks old at the start of the various studies, were C57BL/6 purchased from Jackson Laboratory, Bar Harbor, Me., and were housed at 21±2° C. on a 12 hr light/dark cycle in polycarbonate cages containing corn cob bedding. Experimental animals were housed in the University of Michigan Unit for Laboratory Animal Medicine facility and treated in accord with a protocol approved by the University of Michigan Institutional Animal Care and Use Committee. They were fed a mouse diet from Harlan/Teklad, Madison, Wis., to which copper and zinc had not been added by the manufacturer. […] Copper and zinc are then added to the diet such that the final contents were 2 mg copper and 10 mg zinc/kg of food.
Trientine mouse doxorubicin study. The copper chelator trientine was studied and compared to TM to determine the effects, if any, of trientine on DXR induced cardiotoxicity and myocardial fibrosis in mice using doses of trientine by oral gavage to lower the Cp to target range.
(§1) Assay Methods. Cp was measured by the oxidase enzyme using known methods. Troponin I, LDH, and CK MB were measured by kit methods using known methods.
(§2) Statistical Analysis. For the comparison of means analysis of variance (ANOVA) was used. All data in the figures are given as means+the standard error.

[2] = tested on: myocardial toxicity resulting from administration of doxorubicin HCl; conditions: administered contemporaneously with doxorubicin HCl; cited from earlier work
Wilson's disease = conditions: cited from earlier work
[3] = tested on: doxorubicin model of heart damage; assay: Zinc vs. TM therapy mouse doxorubicin study; type: in vivo, C57BL/6 mice; conditions: for day 4 troponin I plasma level: FIG. 2; for day 4 CK MB plasma level: FIG. 3; for plasma Cp at day 0 (day of DXR administration): after pretreatment to lower Cp
Description: (§3) Mice and mouse food. All mice were 7-8 weeks old at the start of the various studies, were C57BL/6 purchased from Jackson Laboratory, Bar Harbor, Me., and were housed at 21±2° C. on a 12 hr light/dark cycle in polycarbonate cages containing corn cob bedding. Experimental animals were housed in the University of Michigan Unit for Laboratory Animal Medicine facility and treated in accord with a protocol approved by the University of Michigan Institutional Animal Care and Use Committee. They were fed a mouse diet from Harlan/Teklad, Madison, Wis., to which copper and zinc had not been added by the manufacturer. Each lot was assayed by atomic absorption and found to contain about 0.6 mg of copper and about 6.0 mg of zinc/kg of food. Copper and zinc are then added to the diet such that the final contents were 2 mg copper and 10 mg zinc/kg of food.
Zinc vs. TM therapy mouse doxorubicin study. The zinc depot method involved injecting subcutaneously a 20 mg zinc/mL of corn oil suspension to achieve a dose of 110 mg of zinc/kg of mouse weight, weekly. With this method, Cp levels were lowered to target range in 4 weeks. Cp levels were lowered with TM in a second group of mice by using 0.015 mg/ml of TM in the drinking water, and changing the drinking water every day.
20 male mice were divided into four equal groups, 5 to receive depot zinc and then DXR, 5 to receive TM in the drinking water and then DXR, 5 to receive DXR only, and 5 to serve as controls. After Cp levels had been lowered in the first two groups, the first three groups of mice received DXR intraperitoneally at a single dose of 20 mg/kg body weight. Since DXR toxicity inhibits mice from drinking water, after DXR administration, TM mice were treated with a daily gavage of 0.2 mg of TM in 0.1 ml of water. Four days after DXR, all mice were sacrificed, and Cp, troponin I, creatine kinase (CK) MB, and lactic dehydrogenase (LDH) levels were all measured in the plasma according to previously described methods.
as §1, §2

doxorubicin toxicity = conditions: mice, previously found; cited from earlier work
[4] = Solubility and storage stability of TM salts; type: physicochemical
Text: In some embodiments, the salt of TM is an ammonium salt. […] Thus, the bulk drug should be stored in the absence of oxygen, or the oxygen will gradually exchange with the sulfur, rendering the drug ineffective over time. The bulk drug is therefore stored under argon.
Thus, other salts have been prepared and evaluated for solubility, stability and anticopper activity. […] In other embodiments, the salt choline TM has suitable desirable properties. In yet other embodiments, the salt tetraethyl TM has suitable properties. These exemplary salts of TM have suitable solubility in water, and behave similarly to ammonium salt of TM in in vitro copper complexing studies.

[5] = stability assays developed by the inventors (Brewer et al. 1991); cited from earlier work
DXR toxicity = assay: TM therapy copper supplementation doxorubicin study; type: in vivo, mice
Description: as §3
TM therapy copper supplementation doxorubicin study. In order to verify that the effect of TM in the DXR study was due to lowering copper, a study of DXR toxicity was done in which a TM treated group was supplemented with excess copper. In this study, 20 mice were divided into four equal groups, 5 to receive 0.015 mg/ml of TM in the drinking water to lower Cp and then receive DXR (TM was given by gavage after DRX), 5 to receive TM in the same dose and manner as the first group but the diet was supplemented with either 30 or 100 ppm copper such that the Cp didn't fall as far as with TM alone, and then they received DXR, 5 to receive DXR only, and 5 served as controls. After Cp was decreased in the first group, DXR in an intraperitoneal dose of 20 mg/kg body weight was given to the first three groups of mice. Four days after DXR the mice were sacrificed and serum Cp, troponin I, and LDH determined.
as §1, §2

[6] = 4 days after DXR, vs DXR controls

With `NCCNCCNCCN` [trientine] the “effect on LDH” value ([1]; FIG. 5B) was “no protective effect”, the “effect on CK-MB” value ([1]; FIG. 5C) was “no protective effect” and the “effect on Troponin 1” value ([1]; FIG. 5D) was “statistically insignificant effect”. For the same compound, the “Cp at day 4 (4 days after DXR)” value ([1]; continued trientine therapy by oral gavage, FIG. 5A) was “increased into the normal range” and the “Cp at day 0 (when DXR is given)” value ([1]; pretreated by oral gavage, FIG. 5A) was “down significantly, into the target range”.
In the case of `C[C@@H](CN1CC(=O)NC(=O)C1)N1CC(=O)NC(=O)C1` [dexrazoxane, (S)-(+)-bis-4,4′-(1-methyl-1,2-ethanediyl)2,6-piperazinedione], the “effect on myocardial toxicity of doxorubicin HCl” value [2] is listed as “can reduce or prevent the myocardial toxicity”.
In the case of `CC(C)(S)[C@@H](N)C(=O)O` [penicillamine, reference compound], the “neurological worsening during initial treatment” value (Wilson's disease; Wilson's disease, share of the time) is given as 50%.
With `[Zn]` [zinc, reference compound] the “day 4 troponin I plasma level” value [3, 6] was “somewhat lower mean value than controls, but it didn't reach statistical significance”, the “day 4 CK MB plasma level” value [3, 6] was “no effect” and the “plasma Cp at day 0 (day of DXR administration)” value ([3]; FIG. 1) was “equal suppression of Cp”. The “time until Cp levels lowered to target range” value ([3]; zinc depot s.c. 110 mg zinc/kg weekly) was 4 weeks and the “effect on doxorubicin toxicity” value (doxorubicin toxicity) was “attenuates doxorubicin toxicity”.
In the case of `CCC[N+](CCC)(CCC)CCC.CCC[N+](CCC)(CCC)CCC.[S]=[Mo](=[S])([S-])[S-]` [TPTM, tetrapropyl tetrathiomolybdate], the “solubility, stability and anticopper activity, overall” value [4] is reported as “has met all desired properties”.
For `[NH4+].[NH4+].[SH-].[SH-].[S]=[Mo]=[S]` [TM as the ammonium salt], the solubility in water [4] was “moderately water soluble”, the stability in air ([4]; bulk drug) was “mild air instability” and the stability in capsules ([4]; room temperature) was “stable in capsules for several months at room temperature”. For the same compound, the “stability of bulk drug under argon” value [5] was “stable for several years under argon”.
In the case of `[Mo]` [Mo, molybdenum], the “toxicity of high doses” value (Wilson's disease; human, in vivo) is listed as “without toxicity”.
In the case of `[SH-].[SH-].[S]=[Mo]=[S]` [TM, tetrathiomolybdate], the “plasma Cp at day 4 (day of sacrifice), increase after DXR” value ([3]; 4 days after DXR 20 mg/kg i.p., FIG. 1) is reported as “almost completely prevented”, the “day 4 troponin I plasma level” value [3, 6] is reported as “statistically significant effect on maintaining a lower troponin I” and the “day 4 CK MB plasma level” value [3, 6] is reported as “statistically significantly lower value than DXR controls”. The “day 4 LDH plasma level” value ([3]; 4 days after DXR, vs DXR controls, FIG. 4) was “statistically significant effect on maintaining lower values than DXR controls”, the “plasma Cp at day 0 (day of DXR administration)” value ([3]; FIG. 1) was “equal suppression of Cp” and the “protection against cardiac damage, comparison with zinc” value ([3]; similar levels of copper lowering at the time of doxorubicin exposure) was “much more effective than zinc”. The “protection of the heart against doxorubicin toxicity, comparison with trientine” value ([1]; same animal model) was “much more effective than trientine”, the “Cp value on day zero (day of DXR administration)” value (DXR toxicity; group average, DXR only group about 25 U/L) was “about 12 U/L” and the “plasma LDH at day 4 after DXR” value (DXR toxicity; vs DXR only animals, FIG. 6) was “statistically significantly lower than in the DXR only animals”. For the same compound, the “mean troponin I level at day 4 after DXR” value (DXR toxicity; vs DXR only animals, FIG. 7) was “less than half of the DXR only animals”, the toxicity in humans (Wilson's disease; Wilson's disease work) was “extremely low level of toxicity” and the “effect on neurological worsening during initial treatment” value (Wilson's disease; Wilson's disease) was “prevents the neurological worsening”.
